Test results taken from US6177438A, “Morphinan derivatives and pharmaceutical use thereof” (priority 1993, dated 2001).
Where a name gives a salt, the structure may show the parent alone. Read-outs that look alike come from different tables or passages of the source.

How the values were obtained:
[1] = target: T1, μ receptor (Mus musculus, UniProt P42866); assay: Opioid activity test using an extracted mouse vas deferens preparation, Ke with naloxone; design: species or system male ddy mouse; details: naloxone added
T1 construct: naloxone as mu antagonist (printed 'agonist')
T1 sequence (P42866 whole entry): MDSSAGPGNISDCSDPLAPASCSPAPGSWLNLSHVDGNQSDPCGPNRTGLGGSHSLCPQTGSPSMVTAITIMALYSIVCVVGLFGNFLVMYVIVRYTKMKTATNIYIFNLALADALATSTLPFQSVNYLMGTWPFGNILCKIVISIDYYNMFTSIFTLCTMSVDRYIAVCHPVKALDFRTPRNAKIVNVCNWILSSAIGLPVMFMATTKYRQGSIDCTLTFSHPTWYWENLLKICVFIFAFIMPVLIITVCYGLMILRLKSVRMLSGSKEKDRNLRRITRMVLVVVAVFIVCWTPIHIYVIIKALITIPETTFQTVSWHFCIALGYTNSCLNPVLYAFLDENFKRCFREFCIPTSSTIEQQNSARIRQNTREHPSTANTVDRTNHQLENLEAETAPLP
Experimental: A male ddy mouse was used in this test. The vas deferens extracted from the animal was suspended in a Magnus tube filled with Krebes-Henseleit solution (NaCl 118 mM; KCl 4.7 mM; CaCl2 2.5 mM; KH2 PO4 1.1 mM; NaHCO3 25 mM; Glucose 11 mM) warmed to 37° C. and ventilated with 5% carbon dioxide and 95% oxygen. Electrical stimulus was performed at 0.1 Hz for 5.0 ms by means of ring-shaped platinum electrodes located above and below. Tissue contractions were recorded on a polygraph using an isometric transducer.
After adequately washing with nutrient solution and the contraction reaction stabilized, the μ agonist, naloxone, the δ agonist, NTI, or the κ agonist, norBNI, was added after which the test compound was again cumulatively added after roughly 20 minutes. The Ke value was calculated using the following calculation formula from the difference in the efficacies of both agonists.
Ke=[Conc. of added agonist]/(IC50 ratio-1)
IC50 ratio=IC50 in the presence of agonist/IC50 in the absence of agonist

[2] = Diuretic action (urine output for 5 hours after physiological saline loading in rats); type: in vivo, male Wistar rats; details: for ED (200% urine output) / ED (500% urine output): Rattus norvegicus, sc, 5 hours after saline 20 ml/kg p.o.; for ED (200% urine output): dose giving urine output of 200 (non-dosed group = 100); for ED (500% urine output): dose giving urine output of 500 (non-dosed group = 100)
Outline: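 Doses reported as ED200/ED500, i.e. those raising 5 h urine output to 200 or 500 versus undosed rats set at 100. Subcutaneous dosing preceded an oral 20 ml/kg saline load by 30 min; male Wistar rats, 7-8 weeks, deprived of water 1 h beforehand.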

[3] = test system: extracted mouse vas deferens preparation; assay: Opioid activity test using an extracted mouse vas deferens preparation (suppression of electrically induced contractions); design: species or system male ddy mouse; details: electrical stimulus 0.1 Hz, 37° C.
Outline: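 Male ddY mouse vas deferens in Krebs-Henseleit at 37° C, 5% CO2/95% O2, field-stimulated at 0.1 Hz, 5.0 ms; isometric contractions recorded. After adding naloxone, NTI or norBNI, test compound was added cumulatively after ~20 min; Ke derived from the difference in agonist efficacies.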

[4] = test system: acetic acid-induced writhing in ddy mice; assay: animal or person; type: in vivo, 5 week old ddy mice; details: s.c. 15 minutes before acetic acid
Experimental: 5 week old ddy mice were used in this test. After intraperitoneal administration of 0.1 ml of 0.6% aqueous acetic acid per 10 g of body weight, the number of writhing reactions that occurred in 10 minutes starting 10 minutes after administration was evaluated for the indicator. The test drug was administered subcutaneously into the backs of the animals 15 minutes before administration of acetic acid.

[5] = test system: cultured nerve cells (cerebral cortex); details: 10 mM glutamic acid, 24 hours
[6] = target: T2, κ receptor (Mus musculus, UniProt P33534); assay: Opioid activity test using an extracted mouse vas deferens preparation, Ke with norBNI; design: species or system male ddy mouse; details: for receptor selectivity of agonist (κ): in words; for Ke, norBNI: κ, norBNI added
T2 construct: from tissue; host or cells: mouse (male ddy) vas deferens
T2 sequence (P33534 whole entry): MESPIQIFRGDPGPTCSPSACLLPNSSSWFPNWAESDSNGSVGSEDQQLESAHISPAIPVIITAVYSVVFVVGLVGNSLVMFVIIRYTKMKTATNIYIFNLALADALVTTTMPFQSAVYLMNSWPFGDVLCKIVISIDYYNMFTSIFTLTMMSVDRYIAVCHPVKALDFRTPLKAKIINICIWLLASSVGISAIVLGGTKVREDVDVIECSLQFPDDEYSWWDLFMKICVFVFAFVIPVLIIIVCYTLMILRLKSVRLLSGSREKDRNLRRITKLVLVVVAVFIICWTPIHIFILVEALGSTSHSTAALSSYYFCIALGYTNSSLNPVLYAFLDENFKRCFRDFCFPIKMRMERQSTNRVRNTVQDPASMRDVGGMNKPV

[7] = test system: cultured nerve cells (cerebral cortex); assay: cells; details: Rattus norvegicus, Cerebral cortex neuron, 24 h, read-out: ED50 (protection against glutamic acid toxicity)
[8] = test system: nerve cells in the region of the hippocampus CA1; assay: Delayed neuronal death protective action (gerbil transient ischemia model, hippocampus CA1 nerve cell count); type: in vivo, gerbils; details: s.c.; for No. of Residual Nerve Cells: 30 minutes before ischemia, 1 week after ligation; for Suppression of defluxion of brain nerve cells caused by ischemia / cerebro-neuroprotective activity (in words): gerbils
Experimental: Those compounds that provide protection from and suppress delayed neuronal death described in Example 238 are considered to be promising as preventive and therapeutic agents for ischemic brain disorders, brain nerve cell disorders and dementia, which are problems that the present invention is attempting to solve. The pharmacological activity of the compounds of the present invention was evaluated in the manner below using gerbils for the animal model.
A midline incision was made in gerbils having body weights of 50-70 g under ether anesthesia. Blood flow through the carotid arteries on both sides was interrupted to create an ischemic state by ligating the vessels for 5 minutes. The test compound was administered subcutaneously either 30 minutes or 1 hour prior to ligation ischemia, and the rectal temperature of the animals was controlled to 37±2° C. using a heating pad or heater starting 5 minutes before to 30 minutes after ligation ischemia. 1 week after ligation, 4% neutral buffered formalin was perfused from the heart throughout the body followed by extraction of the brain. After post-fixing the extracted brain in the same solution, the tissue was prepared into sections after embedding in paraffin. The sections were stained with hematoxylin and eosin stain, and the number of nerve cells in the region of the hippocampus CA1 over a width of 1 mm to the left and right was counted. The total number of nerve cells on the right and left sides was then used for evaluation.

[9] = target: T3, δ receptor (Mus musculus, UniProt P32300); design: species or system male ddy mouse; details: for Ke, NTI: δ, NTI added
T3 construct: The vas deferens extracted from the animal was suspended in a Magnus tube; from tissue; host or cells: mouse (male ddy) vas deferens
T3 sequence (P32300 whole entry): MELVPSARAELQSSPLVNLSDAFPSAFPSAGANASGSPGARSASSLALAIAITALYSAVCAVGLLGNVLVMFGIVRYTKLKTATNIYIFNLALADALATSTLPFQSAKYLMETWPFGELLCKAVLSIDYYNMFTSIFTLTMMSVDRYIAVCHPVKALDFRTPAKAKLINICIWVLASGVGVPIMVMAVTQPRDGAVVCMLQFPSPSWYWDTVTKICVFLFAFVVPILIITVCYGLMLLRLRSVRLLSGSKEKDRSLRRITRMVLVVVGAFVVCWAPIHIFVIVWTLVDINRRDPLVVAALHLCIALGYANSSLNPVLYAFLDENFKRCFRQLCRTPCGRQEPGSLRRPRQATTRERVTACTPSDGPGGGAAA

[10] = Mus musculus, sc, read-out: ED50

| Structure (SMILES) | Ke, Naloxone [1] [nM] | ED (200% urine output) [2] [µg/kg] | ED (500% urine output) [2] [µg/kg] | IC50 [3] [nM] | ED50 [4] [µg/kg] | Protective action against cytotoxicity caused by glutamic acid (in words) [5] | receptor selectivity of agonist (κ) [6] | Ke, norBNI [6] [nM] | EC50 [7] [nM] | No. of Residual Nerve Cells ([8]; 0.03 mg/kg) | No. of Residual Nerve Cells ([8]; 0.3 mg/kg) | No. of Residual Nerve Cells ([8]; 3 mg/kg) | Suppression of defluxion of brain nerve cells caused by ischemia / cerebro-neuroprotective activity (in words) [8] | ED50 [4, 10] [µg/kg] | Diuretic action (in words) ([2]; s.c., from ED200 values) | receptor selectivity of agonist (δ) ([9]; mouse vas deferens, in words) | Ke, NTI ([9]; mouse vas deferens) [nM] | receptor selectivity of agonist (δ) [9] |
| --- | --- | --- | --- | --- | --- | --- | --- | --- | --- | --- | --- | --- | --- | --- | --- | --- | --- | --- |
| CN(C(=O)/C=C/c1ccccc1)[C@@H]1CC[C@@]2(O)[C@H]3Cc4ccc(O)c5c4[C@@]2(CCN3CC2CC2)[C@H]1O5 [Compound 99, 17-cyclopropylmethyl-3,14β-dihydroxy-4,5α-epoxy-6β-(N-methylcinnararido)morphinan.cndot.hydrochloride] | 94.5 | 1.1 | 30.9 | 0.674 | 1.8 | clearly demonstrated action that protects nerve cells from cytotoxicity caused by glutamic acid | selective agonists for κ receptors | 0.652 | 15400 |  |  |  |  |  |  |  |  |  |
| CC(C)CN(C(=O)Cc1ccc(Cl)c(Cl)c1)[C@H]1CC[C@@]2(O)[C@H]3Cc4ccc(O)c5c4[C@@]2(CCN3CC2CC2)[C@H]1O5 [Compound 51, 17-cyclopropylmethyl-4,5α-epoxy-3,14β-dihydroxy-6α-(N-isobutyl-3,4-dichlorophenylacetoamido)morphinan.cndot.hydrochloride] |  |  |  |  |  | clearly demonstrated action that protects nerve cells from cytotoxicity caused by glutamic acid |  |  | 30 | 17.8 ± 6.9 | 46.4 ± 15.1 | 203.8 ± 40.1 | significantly suppress defluxion of brain nerve cells caused by ischemia | 190 |  |  |  |  |
| CCC/C=C/C(=O)N(C)[C@@H]1CC[C@@]2(O)[C@H]3Cc4ccc(O)c5c4[C@@]2(CCN3CC2CC2)[C@H]1O5 [Compound 100, 17-cyclopropylmethyl-3,14β-dihydroxy-4,5α-epoxy-6β-(N-methyl-trans-2-hexenamido)morphinan.cndot.tartrate] | 1797 | 15.9 | 811 | 0.647 |  | clearly demonstrated action that protects nerve cells from cytotoxicity caused by glutamic acid | selective agonists for κ receptors | 0.0717 | 1740 |  |  |  |  | 24 |  |  |  |  |
| CN(C(=O)CCCCCc1ccccc1)[C@H]1CC[C@@]2(O)[C@H]3Cc4ccc(O)c5c4[C@@]2(CCN3CC2CC2)[C@H]1O5 [Compound 36, 17-cyclopropylmethyl-3,14β-dihydroxy-4,5α-epoxy-6α-(N-methyl-6-phenylhexanamido)morphinan.cndot.hydrochloride] |  |  |  |  |  | clearly demonstrated action that protects nerve cells from cytotoxicity caused by glutamic acid |  |  | 230 | 38.8 ± 19.6 | 85.5 ± 34.9 | 68.0 ± 45.3 | significantly suppress defluxion of brain nerve cells caused by ischemia | 230 |  |  |  |  |
| CN(C(=O)/C=C/c1ccccc1)[C@H]1CC[C@@]2(O)[C@H]3Cc4ccc(O)c5c4[C@@]2(CCN3CC2CC2)[C@H]1O5 [Compound 24, 17-cyclopropylmethyl-3,14β-dihydroxy-4,5α-epoxy-6α-(N-methylcinnamamido)morphinan.cndot.hydrochloride] | 16.5 | 0.69 | 6.3 | 0.121 |  | clearly demonstrated action that protects nerve cells from cytotoxicity caused by glutamic acid |  | 4.90 | 1910 |  |  |  |  | 5.75 | extremely strong diuretic action | selective agonists for δ receptors | 0.426 |  |
| CN(C(=O)C#Cc1ccccc1)[C@@H]1CC[C@@]2(O)[C@H]3Cc4ccc(O)c5c4[C@@]2(CCN3CC2CC2)[C@H]1O5 [Compound 101, 17-cyclopropylmethyl-3,14β-dihydroxy-4,5α-epoxy-6β-(N-methyl-3-phenylpropiolamido)morphinan.cndot.hydrochloride] | 25.4 | 8.9 | 226 | 0.269 |  | clearly demonstrated action that protects nerve cells from cytotoxicity caused by glutamic acid | selective agonists for κ receptors | 0.0425 | 12200 |  |  |  |  | 6.6 |  |  | 31.6 |  |
| CN(C(=O)C#Cc1ccccc1)[C@H]1CC[C@@]2(O)[C@H]3Cc4ccc(O)c5c4[C@@]2(CCN3CC2CC2)[C@H]1O5 [Compound 84, 17-cyclopropylmethyl-3,14β-dihydroxy-4,5α-epoxy-6α-(N-methyl-3-phenylpropiolamido)morphinan.cndot.hydrochloride] | 35.4 | 2.8 | 46.9 | 2.07 |  | clearly demonstrated action that protects nerve cells from cytotoxicity caused by glutamic acid |  | 5.69 | 2700 |  |  |  |  | 5.8 |  |  | 0.309 | selective agonists for δ receptors |
| CN(C(=O)/C=C/C1CCCCC1)[C@@H]1CC[C@@]2(O)[C@H]3Cc4ccc(O)c5c4[C@@]2(CCN3CC2CC2)[C@H]1O5 [Compound 68, 17-cyclopropylmethyl-3,14β-dihydroxy-4,5α-epoxy-6β-(N-methyl-3-cyclohexylacrylamido)morphinan.cndot.tartrate] | 5710 | 1.6 | 23.2 | 0.457 |  | clearly demonstrated action that protects nerve cells from cytotoxicity caused by glutamic acid | selective agonists for κ receptors | 1.08 | 1410 |  |  |  |  | 4.2 |  |  | 143 |  |
